# Publication PMC8382989 (Biochemistry, 2013)
# Changes are numbered by the printed parent chain. In names and notes the source's numbering stands. Where two headings read alike, the source gives them in different places.
# T1: human RNR subunit α, N-terminal domain alone (H-NTD) (Homo sapiens, UniProt P23921)
# T1 sequence (P23921 1-91): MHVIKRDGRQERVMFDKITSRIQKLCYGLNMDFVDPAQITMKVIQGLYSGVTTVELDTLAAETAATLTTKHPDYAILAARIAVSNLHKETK
# T2: human RNR subunit α (H-α) (Homo sapiens, UniProt P23921)
# T2 sequence (P23921 1-792): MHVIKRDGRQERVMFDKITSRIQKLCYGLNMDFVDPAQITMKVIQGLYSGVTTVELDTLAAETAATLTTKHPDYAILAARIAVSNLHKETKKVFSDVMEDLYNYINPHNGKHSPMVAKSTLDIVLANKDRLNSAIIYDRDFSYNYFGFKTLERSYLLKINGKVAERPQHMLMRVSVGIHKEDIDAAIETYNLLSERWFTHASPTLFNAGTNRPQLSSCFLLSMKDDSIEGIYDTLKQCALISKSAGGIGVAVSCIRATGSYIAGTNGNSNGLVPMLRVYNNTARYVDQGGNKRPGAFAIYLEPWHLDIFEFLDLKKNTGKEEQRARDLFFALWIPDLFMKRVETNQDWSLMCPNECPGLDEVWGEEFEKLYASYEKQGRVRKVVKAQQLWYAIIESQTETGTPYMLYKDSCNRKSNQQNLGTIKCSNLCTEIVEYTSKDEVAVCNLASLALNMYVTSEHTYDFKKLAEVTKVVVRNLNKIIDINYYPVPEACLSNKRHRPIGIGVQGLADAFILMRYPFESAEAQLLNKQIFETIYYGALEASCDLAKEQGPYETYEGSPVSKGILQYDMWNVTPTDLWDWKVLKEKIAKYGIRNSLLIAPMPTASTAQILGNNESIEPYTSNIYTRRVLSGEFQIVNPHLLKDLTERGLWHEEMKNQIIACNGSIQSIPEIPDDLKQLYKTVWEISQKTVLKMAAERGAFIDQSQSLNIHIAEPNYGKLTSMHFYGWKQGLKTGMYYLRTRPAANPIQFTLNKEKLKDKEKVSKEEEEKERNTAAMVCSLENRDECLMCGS
# B1: human ribonucleotide reductase subunit α (enzyme, UniProt P23921 1-792, looked up)
# chain: T2 sequence (P23921 1-792)
# B2: human D57N-α (point mutant of human RNR subunit α) (enzyme, UniProt P23921 1-792, looked up)
# chain: T2 sequence (P23921 1-792) with D57N
# B3: E. coli ribonucleotide reductase subunit β (enzyme)
# chain: AYTTFSQTKNDQLKEPMFFGQPVNVARYDQQKYDIFEKLIEKQLSFFWRPEEVDVSRDRIDYQALPEHEKHIFISNLKYQTLLDSIQGRSPNVALLPLISIPELETWVETWAFSETIHSRSYTHIIRNIVNDPSVVFDDIVTNEQIQKRAEGISSYYDELIEMTSYWHLLGEGTHTVNGKTVTVSLRELKKKLYLCLMSVNALEAIRFYVSFACSFAFAERELMEGNAKIIRLIARDEALHLTGTQHMLNLLRSGADDPEMAEIAEECKQECYDLFVQAAQQEKDWADYLFRDGSMIGLNKDILCQYVEYITNIRMQAVGLDLPFQTRSNPIPWINTWLVSDNVQVAPQEVEVSSYLVGQIDSEVDTDDLSNFQL
# Experiments:
# [1] = target: T1, human RNR subunit α, N-terminal domain alone (H-NTD); assay: fluorescence anisotropy titration; format: binding
# [2] = target: E. coli RNR subunit α, catalytic body alone (E-CB) (Escherichia coli, UniProt P00452); assay: fluorescence anisotropy titration; format: binding
# [3] = target: T2, human RNR subunit α (H-α); assay: CDP reductase activity titration with dATP; format: biochemical
# SEC [4] = target: the molecule itself; assay: SEC
# SEC [5] = target: the molecule itself; assay: SEC; remark: listed apart in the source
# E. coli RNR subunit α, catalytic body alone (E-CB), sequence (P00452 94-761): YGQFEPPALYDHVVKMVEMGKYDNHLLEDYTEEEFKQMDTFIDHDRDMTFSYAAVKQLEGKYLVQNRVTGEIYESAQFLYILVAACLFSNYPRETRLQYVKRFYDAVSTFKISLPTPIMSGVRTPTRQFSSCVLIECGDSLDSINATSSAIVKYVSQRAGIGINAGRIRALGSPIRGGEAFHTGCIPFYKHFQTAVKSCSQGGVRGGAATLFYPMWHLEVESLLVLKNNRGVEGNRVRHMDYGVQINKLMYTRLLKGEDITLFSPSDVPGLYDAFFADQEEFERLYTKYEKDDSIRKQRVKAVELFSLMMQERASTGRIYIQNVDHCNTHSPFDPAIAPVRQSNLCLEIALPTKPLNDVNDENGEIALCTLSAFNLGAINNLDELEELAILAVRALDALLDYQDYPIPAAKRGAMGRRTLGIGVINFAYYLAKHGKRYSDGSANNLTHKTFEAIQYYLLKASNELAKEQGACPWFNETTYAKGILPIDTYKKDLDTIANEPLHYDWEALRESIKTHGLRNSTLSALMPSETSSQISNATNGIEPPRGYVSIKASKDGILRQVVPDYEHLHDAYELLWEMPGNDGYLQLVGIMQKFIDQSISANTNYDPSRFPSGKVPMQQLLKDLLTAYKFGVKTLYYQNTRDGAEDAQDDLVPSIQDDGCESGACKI
molecule,measurement,setting,value
Texas Red-5-dATP,Kd,[1],153 ± 19 µM
same,Kd,[2],5.3 ± 0.3 µM
Nc1ncnc2c1ncn2[C@H]1C[C@H](O)[C@@H](COP(=O)(O)OP(=O)(O)OP(=O)(O)O)O1 [dATP],EC50,[3],33 ± 7 µM
B1,stoichiometry N,SEC [4],6
B2,stoichiometry N,SEC [4],2
B3,stoichiometry N,SEC [5],2
